Reference: patent US5968526A, “T cell epitopes of the major allergens from Dermatophagoides (house dust mite)” (Immulogic Pharamaceutical Corporation, priority 1995, dated 1999)

Tests used:
Format in all cases: cell-based, human
[1] = test system: T cell lines primed in vitro to Der f I; test: secondary proliferation of Der f I-primed T cell lines (Examples VI, VII, XI); conditions: Der f I primed; 8 positive experiments; FIG. 8
Procedure: Experiments similar to those of Example V were performed to determine. the T cell-reactive areas of the Der f I protein. For example, PBMC from house dust mite-allergic patient 783 were isolated as described in Example V and were stimulated in vitro-- with recombinant purified Der f I at 20 μg/ml. The results of the proliferation assay with Der f I peptides using x-irradiated (3500 Rads) autologous PBMC as antigen presenting cells indicate that T cells from this patient respond to the peptides DF I-8.1, DF I-9, DF I-6, DF I-10, DF I-2.1, DF I-3, DF I-11, DF I-5, DF I-1, and DF I-17 (data not shown).
The above procedure was followed in a number of patients except in individual cases, T cell lines were primed with affinity purified Der f I at 20 μg/ml or at 10 μg/ml and x-irradiated (25,000 Rads) autologous Epstein-Barr virus transformed B cells were used as antigen presenting cells. […]
Similarly, the procedure described in Example VI was followed with T cell lines from 9 patients primed in vitro to the Der f I protein then analyzed for response to selected peptides derived from the protein. The data was analyzed as described in Example VI. […]

[2] = test system: PBMC from mite-allergic patient; test: primary T cell (PBMC) proliferation, mite-allergic patient, tritiated thymidine; conditions: medium 1071 ± 30
Procedure: Peripheral blood mononuclear cells (PBMC) were purified by Ficoll-Hypaque centrifugation of a peripheral blood specimen from mite-allergic patient and were assayed for proliferation in response to various antigens, i.e., affinity-purified Der p I, affinity purified Der p II, various Der p I and Der p II peptides. For assay, 5×10^4 PBMC were cultured in triplicate microwells for 7 days at 37° C. in the presence of various concentrations of antigen in 200 μl RPMI-1640 containing 5% human AB serum. Each well then received 1 μCi tritiated thymidine for 16 hours. The counts incorporated were collected onto glass fiber filters and processed for liquid scintillation counting. […] The CPM +/- standard deviation are shown. The stimulation index of each response (S.I.) is the ratio of the ^3 H-thymidine CPM incorporated by the cells in response to antigen divided by the ^3 H-thymidine CPM incorporated by cells in medium only. […] Thus, these peptides contain Der p I or Der p II T cell epitopes recognized by T cells from this particular allergic patient.

[3] = test system: T cell lines primed in vitro to Der p I; test: secondary proliferation of Der p I-primed T cell lines (Examples V, VII, XI); conditions: overlapping Der p I peptides; 33 positive experiments
Procedure: 10^7 PBMC from individual 543 were cultured in 10 ml RPMI-1640 containing 5% pooled human AB serum and supplemented with glutamine, penicillin, streptomycin and HEPES buffer in the presence of 20 μg/ml purified native Der p I/ml at 37° C. for 7 days. Viable cells were then purified by Ficoll-Hypaque centrifugation and cultured for 2 additional weeks in RPMI-1640/5% AB serum containing 5 units recombinant human IL-2/ml and 5 units recombinant human IL-4/ml. The resting T cells were then tested in a secondary proliferation assay to assess T cell responses to various house dust mite proteins and peptides. For assay, 2×10^4 resting T cells were cultured in 200 μl of RPMI-1640/5% AB serum for 3 days at 37° C. in the presence of 2×10^4 autologous Epstein-Barr virus transformed B cells (20,000 Rads) as antigen presenting cells with various concentrations of purified native Der p I or synthetic Der p I peptides. Each well then received 1 μCi tritiated thymidine for 16 hours. The counts incorporated were collected onto glass fiber filters and processed for liquid scintillation counting. Medium alone, acting as negative control, contained no allergen or peptide. The results of this experiment indicate that this particular patient responds with an S.I. of at least 2.0 to several peptides derived from the Der p I protein, including DP I-1, DP I-2, DP I-4, DP I-11, DP I-5, DP I-13, DP I-15, DP I-6.1, DP I-8, DP I-9, DP I-16, DP I-10 and DP I-17 (data not shown).
The above procedure was followed with a number of other house dust mite allergic individuals except a) in individual cases, the length of time of cultivation with IL-2 and IL-4 varied; b) in individual cases, the T cells were primed with either purified native (N) or recombinant (R) Der p I protein at either 20 μg/ml or 10 μg/ml; and c) in individual cases, x-irradiated (3500 Rads) autologous PBMC were used as antigen presenting cells in the secondary proliferation assay.
Individual results were considered positive and used if the individual responded to the Der p I protein and at least one peptide derived from Der p I at an S.I. of 2.0 or greater. The resting T cell lines primed with recombinant or native Der p I-stimulated PBMC were tested for reactivity to synthetic Der p I peptides. The maximum response for each peptide in a titration of the antigen is expressed as the T cell stimulation index (S.I.). The S.I. is the counts-per-minute (CPM) incorporated by cells in response to the peptide divided by the CPM incorporated by cells in medium only. […] However, only individual S.I. values greater than or equal to 2.0 (a response two-fold or greater over background), referred to herein as "positive" results, were used in calculating mean T cell stimulation indices for each peptide for the patient or group of patients tested. […] The T cell stimulation index is calculated by: [formula]
The bar represents the cumulative rank of the peptide response in the group of patients. To determine the cumulative rank, the 5 peptides with the highest S.I. in each individual were determined and assigned a numerical rank in descending order, with 5 representing the strongest response. The ranks for each peptide were then summed in the group of patients to determine the cumulative rank for the peptide. […] Given the percent positive and the mean T cell stimulation index, the positivity index (P.I.) for each peptide can be calculated.
The Der p I and Der f I proteins are very homologous (81% identity). Thus, experiments, similar to those of Example V, were carried out to determine the T cell responses of Der p I primed T cell lines when challenged with various Der p I peptides and substantially matching […].
The results of T cell studies using selected peptides derived from the Der p I, the Der f I, the Der p II and the Der f II proteins are shown in FIGS. 13-18a-d. […]

[4] = test system: T cell lines primed in vitro to Der p II; test: secondary proliferation of Der p II-primed T cell lines (Examples VIII, X, XI); conditions: for T cell reactivity: overlapping Der p II peptides, 26 positive experiments, FIG. 9; for T cell response: patient 348, native Der p II primed, data not shown
Procedure: Experiments similar to those of Example V were performed to determine the T cell-reactive areas of the Der p II protein. For example, PBMC from house dust mite-allergic patient 348 were isolated as described in Example V and were stimulated in vitro with 20 μg/ml purified native Der p II.
The above procedure was followed with a number of patients except in individual cases, T cell lines were primed with recombinant Der p II at 20 μg/ml or at 3 μg/ml and x-irradiated (3500 Rads) autologous PBMC were used as antigen-presenting cells. The data was analyzed as described in Example V, except the ranked sum of peptide responses was analyzed assigning a value of 3, 2 or 1 to the three highest S.I. responses.
A study similar to that described in Example VII was carried out to determine the T cell cross-reactivity of the Der p II and Der f II proteins. T cells primed with the Der f II protein were challenged with various Der f II peptides and a set of substantially matching Der p II peptides.
Another experiment following the procedure described in Example VIII analyzed the response of 29 patients primed in vitro to the Der p II protein and challenged with selected peptides derived from the Der p II sequence.

[5] = test system: T cell lines primed in vitro with Der p II; test: T cell proliferation with fine map and modified Group II peptides (Example XIV); conditions: FIGS. 32a-b
Procedure: Long term T cell lines were established by stimulation of 2×10^6 PBL/ml in bulk cultures of complete medium (RPMI-1640, 2 mM L-glutamine, 100 U/ml penicillin/streptomycin, 5×10^-5 M 2-mercaptoethanol, and 10 mM HEPES supplemented with 5% heat inactivated human AB serum) with 30 μg/ml of purified native Der p I or Der p II for 5-6 days at 37° C. in a humidified 5% CO2 incubator to select for house dust mite protein allergen reactive T cells. This amount of priming antigen was determined to be optimal for the activation of T cells from house dust mite allergic patients. Viable cells were purified by LSM centrifugation and cultured in complete medium supplemented with 5 units recombinant human IL-2/ml and 5 units recombinant human IL-4/ml for up to three weeks until the cells no longer responded to lymphokines and were considered "rested". The ability of the T cells to proliferate to selected peptides, purified Der p I or Der p II, or positive (PHA) controls or negative controls (medium only) was then assessed. For assay, 2×10^4 rested cells were restimulated in the presence of 2×10^4 autologous Epstein-Barr virus (EBV)-transformed B cells (prepared as described below) (gamma-irradiated with 25,000 RADS) or with 5×10^4 autologous PBMs (gamma-irradiated with 3500 RADS), with 2-50 μg/ml of purified native Der p I or Der p II in a volume of 200 μl complete medium in duplicate or triplicate wells in 96-well round bottom plates for 3 days. Each well then received 1 μCi tritiated thymidine for 16-20 hours. The counts incorporated were collected onto glass fiber filter mats and processed for liquid scintillation counting. […] The titrations were used to optimize the dose of peptides in T cell assays.
The maximum response in a titration of each peptide is expressed as the stimulation index (S.I.). The S.I. is the counts per minute (CPM) incorporated by cells in response to peptide, divided by the CPM incorporated by cells in medium only. […] The positive results were used in calculating mean stimulation indices for each peptide for the individual patient tested.
The above procedure was followed with 18 patients in the studies using peptides derived from Der p I and Der f I (FIGS. 31a-b), and 21 patients in the studies with Der p II peptides (FIGS. 32a-b). Individual patient results were used in calculating the mean S.I. for each peptide if the patient responded to the Der p I or Der p II protein at an S.I. of 2.0 or greater and the patient responded to at least one peptide derived from a house dust mite allergen at an S.I. f 2.0 or greater. A summary of positive experiments from the patients tested is shown in FIGS. 32a and 32b and FIGS. 33a and 33b. The bars represent the positivity index. […] In parenthesis above each bar are the mean stimulation indices for each peptide or protein for the group of patients tested.
Autologous EBV-transformed cell lines were γ-irradiated with 25,000 Rad and used as antigen presenting cells in secondary proliferation assays and secondary bulk stimulations. These EBV-transformed cell lines were made by incubating 5×10^6 PBL with 1 ml of B-59/8 Marmoset cell line (ATCC CRL1612, American Type Culture Collection, Rockville, Md.) conditioned medium in the presence of 1 μg/ml phorbol 12-myristate 13-acetate (PMA) at 37° C. for 60 minutes in 12×75 mm polypropylene round-bottom Falcon snap cap tubes (Becton Dickinson Labware, Lincoln Park, N.J.). These cells were then diluted to 1.25×10^6 cells/ml in RPMI-1640 as described above except supplemented with 10% heat-inactivated fetal bovine serum and cultured in 200 μl aliquots in flat bottom culture plates until visible colonies were detected. They were then transferred to larger wells until the cell lines were established.

Substance: DP I-8: Der p I peptide (IKDLDAFRHYDGTRIIQRDNGYQPNY)
- T cell response to Der p I peptides [1]: respond significantly
- CPM ± S.D. ([2]; 10 μg/ml): 1439 ± 32 CPM
- CPM ± S.D. ([2]; 30 μg/ml): 1045 ± 32 CPM
- CPM ± S.D. ([2]; 100 μg/ml): 2272 ± 40 CPM
- T cell reactivity [3]: significant regions of T cell reactivity

Substance: DP II-8: Der p II peptide (DIKYTWNVPKIAPKSENVVVTVKVMG)
- T cell reactivity [4]: significant T cell reactivity
- T cell response [4]: responds well

Substance: DP II-9: Der p II peptide (VVTVKVMGDDGVLACAIATHAKIRD)
- CPM ± S.D. ([2]; 10 μg/ml): 3970 ± 87 CPM
- CPM ± S.D. ([2]; 30 μg/ml): 4464 ± 86 CPM
- CPM ± S.D. ([2]; 100 μg/ml): 2237 ± 53 CPM
- T cell reactivity [4]: significant T cell reactivity
- T cell response [4]: responds well

Substance: DP II-20.6: Der p II peptide (DQVDVKDSANHEIKKVLVPGSHGSEP)
- ranked sum of peptide responses ([4]; 30 patients, FIG. 17b): highest ranked sum

Substance: DP II-20: Der p II peptide (DQVDVKDCANHEIKKVLVPGCHGSEP)
- T cell response, Group II peptides [5]: positive T cell studies

Substance: DPII-8: printed among the modified forms; SEQ ID NO 171 in b126, probably DP II-20.8 (DQVDVKDCANHEIKKVLVPGCHGSEPK)
- T cell response, Group II peptides [5]: positive T cell studies
